Literature values in patent publication US20090092668A1, “ACETAMINOPHEN FORMULATION FOR JOINT PAIN RELIEF” (priority 2006, published 2009).

What was measured:
[1] = one subject

| SMILES | pain status ([1]; ¼-½ tsp. daily for about 16 months) | pain relief ([1]; ½ tsp. daily in diet, by the end of the second week) | excreted as exhaled carbon dioxide (of the absorbed glucosamine) [%] | excreted in the urine (of the absorbed glucosamine) [%] | remaining in the tissues (of the absorbed glucosamine) [%] | absorbed from the small intestine (sulfate form) |
| --- | --- | --- | --- | --- | --- | --- |
| CS(C)(=O)=O [MSM, Methylsulfonylmethane] | substantially pain-free life | almost total pain relief |  |  |  |  |
| N[C@H]1C(O)O[C@H](CO)[C@@H](O)[C@@H]1O (stereo partly drawn) [glucosamine] |  |  | 65 | 25 | 10 | over 90% |
